Values of other authors as cited in patent US10024828B2, “Adsorbent and analysis method using same” (Hitachi High-Technologies Corporation, priority 2013, dated 2018).

Settings: source not stated (calculated or measured value)

Point of comparison: `CN(Cc1cnc2nc(N)nc(N)c2n1)c1ccc(C(=O)N[C@@H](CCC(=O)O)C(=O)O)cc1` [methotrexate], “log P (octanol-water partition coefficient)” value −0.91. Against it:
- Nc1ccn([C@@H]2O[C@H](CO)[C@@H](O)C2(F)F)c(=O)n1 [gemcitabine] — higher, 0.14
- O=c1[nH]cc(F)c(=O)[nH]1 [5-fluorouracil] — higher, −0.57
